Experiments:
MDA-MB468 = experiment: SRB cytotoxicity assay; type: cell-based; details: Homo sapiens, MDA-MB-468, 72 h treatment
Experimental: (§1) HepG2, FOCUS, Hep3B, Mahlavu, Huh7, Hep40, and PLC-PRF-5 hepatocellular carcinoma cells; MCF-7, MDA-MB-231, MDA-MB-468, SKBR3, and ZR-75 breast cancer cells; and normal-like epithelial MCF-10A breast cells were cultured in low-glucose Dulbecco’s modified Eagle’s medium (DMEM) (Biological Industries-BI) supplemented with 10% fetal bovine serum (FBS) (Gibco/Thermo Fisher Scientific), 2 mM L-Glutamine (Gibco/Thermo Fisher Scientific), 100 Units/mL Penicillin/Streptomycin, and 0.1 mM non-essential amino acid (Gibco/Thermo Fisher Scientific). SNU475 hepatocellular carcinoma cells were maintained in RPMI (Biological Industries-BI) supplemented with 10% fetal bovine serum (FBS) (Gibco/Thermo Fisher Scientific), L-Glutamine (Gibco/Thermo Fisher Scientific), and 100 Units/mL Penicillin/Streptomycin, while ZR-75 breast cancer cells were cultured RPMI (Biological Industries-BI) supplemented with 10% fetal bovine serum (FBS) (Gibco/Thermo Fisher Scientific), 1× sodium pyruvate, and %4.5 glucose. Normal-like MCF-10A breast cells were sustained in DMEM/HAM’S F12 (Hyclone) supplemented with 10% fetal bovine serum (FBS) (Gibco/Thermo Fisher Scientific), EGF (20 ng/mL), Hydrocortisone ([…]), cholera toxin (100 ng/mL), insulin (10 μg/mL), and 100 Units/mL Penicillin/Streptomycin. The cells were cultivated at 37 °C in a humidified incubator under 5% CO2.
(§2) Mahlavu, FOCUS, SNU475 (1000 cell/well in 150 μL/well); Huh7, MCF7 (2500 cell/well in 150 μL/well); HepG2, Hep3B, SKBR3 (3000 cell/well in 150 μL/well); PLC-PRF-5, Hep40 (5000 cell/well in 150 μL/well); MDA-MB-231, MDA-MB-468, MCF10A (6000 cell/well in 150 μL/well); and ZR-75 (7500 cell/well in 150 μL/well) were cultured in 96-well plates and were inoculated in an incubator for 24 hours. The compounds were dissolved in dimethyl sulfoxide (DMSO) (Sigma, St Louis, MO) as a 20 mM stock solution. The treatment of cells with the compounds was done in a concentration range starting from 40 to 2.5 μM. The compounds which were below 2.5 μM were tested in a concentration range from 2.5 to 0.15 μM. End of the 72h compound treatment, the cells were fixed using 10% (v/v) trichloroacetic acid (MERCK) for an hour and washed with ddH2O, and left for air-drying. The fixed plates were stained with 50 μL of sulforhodamine B (SRB) solution (Sigma) at RT for 10 min. To remove unbound SRB dye, acetic acid was used to wash cells three times and left for drying. The protein-bound SRB was solubilized with 10 mM Tris-base (Sigma) and their absorbance was measured with a 96-well plate reader at 515 nm wavelength (ELx800, Biotek). The IC50 values of compounds were calculated in comparison with control group DMSO. Data with R^2 values larger than 0.9 are considered significant.

Hep40 = experiment: SRB cytotoxicity assay; type: cell-based; details: Homo sapiens, 72 h treatment
Experimental: as §1, §2

FOCUS = experiment: SRB cytotoxicity assay; type: cell-based; details: Homo sapiens, 72 h treatment
Experimental: as §1, §2

ZR75 = experiment: SRB cytotoxicity assay; type: cell-based; details: Homo sapiens, 72 h treatment
Experimental: as §1, §2

PLC-PRF-5 = experiment: SRB cytotoxicity assay; type: cell-based; details: Homo sapiens, 72 h treatment
Experimental: as §1, §2

Mahlavu xenografts = experiment: Mahlavu hepatocellular carcinoma xenograft; type: in vivo; details: 40 mg/kg oral; for reduction in tumor volume: Mahlavu xenografts, nude mice, twice a week, 4 weeks; for Tolerability of the administered dose: in all studies (Mahlavu and MDA-MB-231 xenografts), no significant bodyweight loss, toxic effects or mortality
Experimental: Mahlavu cells (10 × 10^6 cells/mouse) prepared in 150 μL of DMEM were injected subcutaneously to the flank of 6–8 weeks old male athymic nude mice, while MDA-MB-231 cells (2 × 10^6cells/mouse) in 1:1 DMEM and matrigel were injected into mammary fat pad (MFP) of 6–8 weeks old female athymic nude mice. Tumor volume and mouse weight were measured twice a week using calipers. When the tumor volume reached ∼150 mm^3, xenografts were randomized into groups (6 mice per group), and the mice were administered subsequently with 11 or 85 (40 mg/kg in 0.5% hydroxypropyl methylcellulose plus 1% Tween 80) or vehicle by gavage feeding (3–4 days/week) for 4 weeks. The mice were sacrificed 30 days after initiation of the compound treatment and tumors were collected. Two-way ANOVA was performed for statistical significance by GraphPad Prism. All of the mice were maintained under a temperature-controlled environment with a 12 h light/dark cycle and received a standard diet and water ad libitum.

[1] = tested on: Mahlavu, Huh7, MCF7, and MDA-MB-231; experiment: Annexin V flow cytometry; type: cell-based, human; details: 5 μM; compared to the control group
Experimental: Mahlavu, Huh7, MCF7, and MDA-MB-231 were seeded onto six-well plates. After 24 h, the cells were incubated with 5 μM compounds 11 and 85 by keeping DMSO as a negative control. […] PI and Annexin V dyes were added onto cell lysates for 15 min at room temperature in the dark to stain the cells for detecting apoptotic cell populations. The cells were analyzed by flow cytometry.

U251 = experiment: NCI-60 single-dose screen; type: cell-based; details: Homo sapiens, U-251, U251, CNS Cancer, read-out: % Growth Inhibition (GI%)
Experimental: (§3) Moreover, in vitro single-dose anticancer screening of 11 and 85 at 10 μM was performed utilizing the stable panel of 60 cell lines comprising 9 different cancer types at the National Cancer Institute (NCI) under the Developmental Therapeutics Program (Table S1).[31]

UACC-257 = experiment: NCI-60 single-dose screen; type: cell-based; details: Homo sapiens, UACC-257, Melanoma, read-out: % Growth Inhibition (GI%)
Experimental: as §3

HS 578T = experiment: NCI-60 single-dose screen; type: cell-based; details: Homo sapiens, Breast Cancer, read-out: % Growth Inhibition (GI%)
Experimental: as §3

M14 = experiment: NCI-60 single-dose screen; type: cell-based; details: Homo sapiens, M14, Melanoma, read-out: % Growth Inhibition (GI%)
Experimental: as §3

HCT-15 = experiment: NCI-60 single-dose screen; type: cell-based; details: Homo sapiens, HCT-15, Colon Cancer, read-out: % Growth Inhibition (GI%)
Experimental: as §3

NCI-H226 = experiment: NCI-60 single-dose screen; type: cell-based; details: Homo sapiens, NCI-H226, Non-Small Cell Lung Cancer, read-out: % Growth Inhibition (GI%)
Experimental: as §3

MOLT-4 = experiment: NCI-60 single-dose screen; type: cell-based; details: Homo sapiens, MOLT-4, Leukemia, read-out: % Growth Inhibition (GI%)
Experimental: as §3

MALME-3M = experiment: NCI-60 single-dose screen; type: cell-based; details: Homo sapiens, Melanoma, read-out: % Growth Inhibition (GI%)
Experimental: as §3

Cc1ccccc1COc1ccc(-c2noc(C)c2-c2ccc(Cl)cc2)cc1 [compound 11, 4-(4-Chlorophenyl)-5-methyl-3-(4-((2-methylbenzyl)oxy)phenyl)isoxazole]
IC50 (MDA-MB468): 2.8 µM | IC50 (Hep40): 8.6 µM | IC50 (FOCUS): 2.1 µM | IC50 (ZR75): 7.6 µM | IC50 (PLC-PRF-5): 9.5 µM | reduction in tumor volume (Mahlavu xenografts): 85% | Tolerability of the administered dose (Mahlavu xenografts): well tolerated | percentage of apoptotic populations (Annexin V) [1]: increased | inhibition at 10 µM (U251): 58.7% | inhibition at 10 µM (UACC-257): 29.1% | inhibition at 10 µM (HS 578T): 40.6% | inhibition at 10 µM (M14): 67.8% | inhibition at 10 µM (HCT-15): 62.5% | inhibition at 10 µM (NCI-H226): 42.8% | inhibition at 10 µM (MOLT-4): 67.2% | inhibition at 10 µM (MALME-3M): 40.2%

Cc1ccccc1COc1ccc(-c2ccnn2-c2ccc(Cl)cc2)cc1 [compound 85, 1-(4-Chlorophenyl)-5-(4-((2-methylbenzyl)oxy)phenyl)-1H-pyrazole]
IC50 (MDA-MB468): 1 µM | IC50 (Hep40): 5.2 µM | IC50 (FOCUS): 2.4 µM | IC50 (ZR75): 5.5 µM | IC50 (PLC-PRF-5): 6.5 µM | reduction in tumor volume (Mahlavu xenografts): 40% | Tolerability of the administered dose (Mahlavu xenografts): well tolerated | percentage of apoptotic populations (Annexin V) [1]: increased | inhibition at 10 µM (U251): 54% | inhibition at 10 µM (UACC-257): 24.3% | inhibition at 10 µM (HS 578T): 39.1% | inhibition at 10 µM (M14): 61% | inhibition at 10 µM (HCT-15): 60.1% | inhibition at 10 µM (NCI-H226): 29.7% | inhibition at 10 µM (MOLT-4): 73.7% | inhibition at 10 µM (MALME-3M): 32.8%

— article PMC9583322, “Vicinal Diaryl-Substituted Isoxazole and Pyrazole Derivatives with In Vitro Growth Inhibitory and In Vivo Antitumor Activity” (ACS Omega, 2022)
